Test [1] deals with T1, Adenosine receptor A2a (Homo sapiens, UniProt P29274). The test is described as follows: Displacement of [3H]-[…] from human recombinant adenosine A2A receptor. A general note: Displacement assays read how much labelled ligand stays bound in the presence of the test substance.
Test [2] concerns the target T2, Rho-associated protein kinase 2 (Homo sapiens, UniProt O75116). Description: Inhibition of ROCK2 (unknown origin).
The target of a further test is T3, Adenosine receptor A3 (Homo sapiens, UniProt P0DMS8).
T3 sequence (P0DMS8 whole entry): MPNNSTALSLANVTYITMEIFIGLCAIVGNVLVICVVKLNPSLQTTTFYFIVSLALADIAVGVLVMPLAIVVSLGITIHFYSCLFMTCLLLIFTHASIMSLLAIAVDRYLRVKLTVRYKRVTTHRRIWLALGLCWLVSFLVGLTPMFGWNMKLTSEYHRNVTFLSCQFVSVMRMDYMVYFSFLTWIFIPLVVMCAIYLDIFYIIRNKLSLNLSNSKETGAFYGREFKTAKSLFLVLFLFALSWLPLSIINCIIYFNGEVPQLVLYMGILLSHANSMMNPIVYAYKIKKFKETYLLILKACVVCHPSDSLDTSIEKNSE
The test is described as follows: Antagonist activity at human adenosine A3 receptor.

Test [3] addresses Rho-associated protein kinase 1 (Homo sapiens, UniProt Q13464). Description: Inhibition of ROCK1 (unknown origin).
Test [4] concerns the target T1, Adenosine receptor A2a. Description: Displacement of 2-[2-(4-amino-3-[125I]iodophenyl)ethylamino]adenosine from human recombinant adenosine A2A receptor expressed in HEK293 cells. Type of test: cell-based.
In test [5] the target is T2, Rho-associated protein kinase 2. Description: Inhibition of ROCK2 (unknown origin) using STK2 as substrate after 1 hr.

What is called Ki is the equilibrium dissociation constant of an inhibitor or competing ligand from its target. As usually defined, the IC50 is the point on the concentration scale where inhibition reaches its midpoint. The low end stands for greater potency in that assay, the high end for weaker potency in that assay. Usually Kd stands for the equilibrium constant for the complex coming apart.

Each structure is given as a SMILES string.

T1 sequence (P29274 whole entry): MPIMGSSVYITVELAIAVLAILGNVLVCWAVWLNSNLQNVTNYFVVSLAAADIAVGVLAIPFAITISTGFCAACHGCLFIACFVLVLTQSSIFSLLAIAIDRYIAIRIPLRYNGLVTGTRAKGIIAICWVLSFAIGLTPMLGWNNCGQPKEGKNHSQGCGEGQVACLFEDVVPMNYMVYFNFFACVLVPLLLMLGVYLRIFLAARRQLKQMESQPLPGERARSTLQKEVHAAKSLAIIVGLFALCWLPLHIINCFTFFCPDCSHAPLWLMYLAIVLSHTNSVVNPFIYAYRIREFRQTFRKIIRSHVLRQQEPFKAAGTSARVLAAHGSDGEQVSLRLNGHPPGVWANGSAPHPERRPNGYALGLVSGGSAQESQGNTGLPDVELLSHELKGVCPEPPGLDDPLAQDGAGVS
T2 sequence (O75116 whole entry): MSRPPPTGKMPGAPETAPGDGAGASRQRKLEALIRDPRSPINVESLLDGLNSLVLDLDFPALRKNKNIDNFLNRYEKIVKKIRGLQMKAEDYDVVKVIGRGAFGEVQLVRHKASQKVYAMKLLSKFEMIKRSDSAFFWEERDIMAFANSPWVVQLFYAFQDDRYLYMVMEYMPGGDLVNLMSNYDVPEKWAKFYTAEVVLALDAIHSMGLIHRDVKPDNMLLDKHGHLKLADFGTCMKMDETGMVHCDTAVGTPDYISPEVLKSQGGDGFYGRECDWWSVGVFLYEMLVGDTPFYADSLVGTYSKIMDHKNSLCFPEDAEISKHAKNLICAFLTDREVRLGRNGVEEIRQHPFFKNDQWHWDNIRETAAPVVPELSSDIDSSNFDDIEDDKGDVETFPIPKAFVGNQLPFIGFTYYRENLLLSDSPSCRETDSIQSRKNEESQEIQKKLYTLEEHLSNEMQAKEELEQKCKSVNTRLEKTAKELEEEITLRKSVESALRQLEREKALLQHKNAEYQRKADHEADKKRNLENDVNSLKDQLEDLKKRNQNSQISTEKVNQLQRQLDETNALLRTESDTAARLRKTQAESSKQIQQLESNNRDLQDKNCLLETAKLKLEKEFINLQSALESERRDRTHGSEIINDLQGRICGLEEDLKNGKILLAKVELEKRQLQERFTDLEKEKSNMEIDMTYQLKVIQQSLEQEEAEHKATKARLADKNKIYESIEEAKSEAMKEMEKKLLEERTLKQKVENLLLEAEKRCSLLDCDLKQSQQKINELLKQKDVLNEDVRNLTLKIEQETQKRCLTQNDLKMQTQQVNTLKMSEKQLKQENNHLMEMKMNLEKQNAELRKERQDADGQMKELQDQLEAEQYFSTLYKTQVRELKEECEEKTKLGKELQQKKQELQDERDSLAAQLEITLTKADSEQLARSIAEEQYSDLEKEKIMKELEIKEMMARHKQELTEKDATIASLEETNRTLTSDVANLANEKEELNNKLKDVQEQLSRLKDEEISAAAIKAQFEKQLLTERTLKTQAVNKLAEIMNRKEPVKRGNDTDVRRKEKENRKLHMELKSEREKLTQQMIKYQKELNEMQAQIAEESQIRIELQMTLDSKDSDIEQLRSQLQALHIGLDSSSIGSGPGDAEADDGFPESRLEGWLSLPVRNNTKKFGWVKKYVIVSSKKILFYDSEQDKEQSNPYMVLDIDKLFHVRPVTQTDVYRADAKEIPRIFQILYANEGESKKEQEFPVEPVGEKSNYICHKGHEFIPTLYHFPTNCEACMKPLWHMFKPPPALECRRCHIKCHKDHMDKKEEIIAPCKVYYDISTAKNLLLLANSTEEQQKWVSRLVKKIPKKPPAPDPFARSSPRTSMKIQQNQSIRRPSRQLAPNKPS
Sequence of Rho-associated protein kinase 1 (Q13464 whole entry): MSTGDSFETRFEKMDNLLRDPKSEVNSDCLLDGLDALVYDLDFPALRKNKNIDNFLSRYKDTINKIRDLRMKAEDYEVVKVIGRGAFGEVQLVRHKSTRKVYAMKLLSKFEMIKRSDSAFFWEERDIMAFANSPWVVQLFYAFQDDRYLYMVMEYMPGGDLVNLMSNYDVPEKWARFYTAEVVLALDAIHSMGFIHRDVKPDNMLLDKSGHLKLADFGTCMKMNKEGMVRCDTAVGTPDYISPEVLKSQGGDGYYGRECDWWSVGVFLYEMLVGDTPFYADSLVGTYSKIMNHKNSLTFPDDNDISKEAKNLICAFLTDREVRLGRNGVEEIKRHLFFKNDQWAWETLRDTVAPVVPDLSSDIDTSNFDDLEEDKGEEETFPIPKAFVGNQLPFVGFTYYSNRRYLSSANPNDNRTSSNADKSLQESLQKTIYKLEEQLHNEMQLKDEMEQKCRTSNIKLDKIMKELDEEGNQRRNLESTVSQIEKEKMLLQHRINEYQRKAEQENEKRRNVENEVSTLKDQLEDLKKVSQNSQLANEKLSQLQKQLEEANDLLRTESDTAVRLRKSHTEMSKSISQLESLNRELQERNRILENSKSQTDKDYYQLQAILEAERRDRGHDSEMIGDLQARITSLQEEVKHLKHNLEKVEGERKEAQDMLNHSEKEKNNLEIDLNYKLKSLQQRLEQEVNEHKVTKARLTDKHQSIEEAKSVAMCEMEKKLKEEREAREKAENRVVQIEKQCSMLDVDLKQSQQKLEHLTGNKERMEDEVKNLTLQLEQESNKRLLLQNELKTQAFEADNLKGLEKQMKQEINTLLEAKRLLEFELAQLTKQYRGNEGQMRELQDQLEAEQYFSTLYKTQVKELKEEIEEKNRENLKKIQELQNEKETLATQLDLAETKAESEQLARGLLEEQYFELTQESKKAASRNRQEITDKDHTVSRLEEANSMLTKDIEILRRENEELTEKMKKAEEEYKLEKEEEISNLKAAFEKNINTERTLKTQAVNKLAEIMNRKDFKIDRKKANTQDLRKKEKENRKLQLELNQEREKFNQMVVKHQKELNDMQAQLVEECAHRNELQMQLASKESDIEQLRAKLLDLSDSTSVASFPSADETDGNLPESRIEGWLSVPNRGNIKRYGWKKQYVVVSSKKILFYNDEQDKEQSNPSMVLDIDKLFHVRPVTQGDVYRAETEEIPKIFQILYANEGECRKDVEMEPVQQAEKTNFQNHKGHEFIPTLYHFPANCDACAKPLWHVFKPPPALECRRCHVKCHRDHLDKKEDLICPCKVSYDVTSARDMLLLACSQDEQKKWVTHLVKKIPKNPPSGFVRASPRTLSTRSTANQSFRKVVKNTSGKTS

For the molecule `CCCCCCC#Cc1nc(N)c2ncn([C@@H]3O[C@H](CO)[C@@H](O)[C@H]3O)c2n1`, on Adenosine receptor A2a [1], the Ki was 31.8 nM.

For the molecule `C[C@H]1CNCCCN1S(=O)(=O)c1cccc2cncc(F)c12`, in test [2], half-maximal inhibition (IC50) required 19 nM.

Regarding `CNC(=O)[C@H]1O[C@@H](n2cnc3c(NCc4cccc(I)c4)nc(Cl)nc32)[C@H](OC(C)=O)[C@@H]1OC(C)=O`, the affinity at Adenosine receptor A3, expressed as Ki, was 910 nM.

Regarding `NC(C(=O)Nc1ccc2cnccc2c1)c1ccccc1` (stereo not given), the results for the IC50 in test [2] and in test [3] were 1.5 nM and 6 nM, respectively.

`N#CCCCCC#Cc1nc(N)c2ncn([C@@H]3O[C@H](CO)[C@@H](O)[C@H]3O)c2n1`: the Ki on Adenosine receptor A2a [1] was 49.3 nM.

On to `NCC(C(=O)Nc1ccc2cnccc2c1)c1ccccc1` (stereo not given), for which the IC50 in test [2] was found to be 1.1 nM; in test [3], 1.2 nM.

With `COC(=O)N1CCC(CC#Cc2nc(N)c3ncn([C@@H]4O[C@H](C(=O)NC5CC5)[C@@H](O)[C@H]4O)c3n2)CC1` [EVODENOSON], the Kd at Adenosine receptor A2a [4] turned out to be 0.7 nM.

For the molecule `CN(C)CCOc1cc(-c2cn[nH]c2)ccc1NC(=O)C1COc2ccccc2O1` (stereo not given) [SR-3677], 3 nM corresponded to half-maximal inhibition in test [5] (IC50).
